The subject of series [1] is Brain. Nature of the series: Ratio of drug level in ddY mouse brain at 7.1 to 21.5 kBq, iv measured at 2 mins to drug level in ddY mouse brain at 7.1 to 21.5 kBq, iv measured at 60 mins. Conditions: in vivo. The format is ADME, organism-based.
The subject of series [2] is Brain. Nature of the series: Ratio of drug level in ICR mouse brain at 2.6 to 3.3 MBq, iv measured at 2 mins to drug level in ICR mouse brain at 2.6 to 3.3 MBq, iv measured at 60 mins. The conditions noted are these: in vivo. Type of series: ADME, organism-based.

Among the data in ChEMBL document CHEMBL2384977, “Synthesis and biological evaluation of novel styryl benzimidazole derivatives as probes for imaging of neurofibrillary tangles in Alzheimer's disease” (Bioorg Med Chem, 2013) are Ratio values, retold here.

For the molecule `O=C1/C(=C/c2ccc(-c3cccc([125I])c3)o2)NC(=S)N1CCc1c[nH]cn1`, in the series on Brain [1], the Ratio was determined as 6.16.

As to `[11CH3]Nc1ccc(-c2ccc3ccccc3n2)cc1`, in the series on Brain [2], the Ratio is 5.38.
